The record followed here is patent US12202823B2 (QUIMATRYX, S.L., priority 2019, dated 2025).

The test addresses hHDAC6 (Homo sapiens (Human), UniProt Q9UBN7). Kind of test: HDAC6 inhibition protocol. Conditions: read-out: IC50 (nM) of enzyme activity HDAC6; hHDAC6 1.20 nM, Acetylated Peptide A 2 μM, 1 hour at RT.

hHDAC6, sequence (Q9UBN7 whole entry): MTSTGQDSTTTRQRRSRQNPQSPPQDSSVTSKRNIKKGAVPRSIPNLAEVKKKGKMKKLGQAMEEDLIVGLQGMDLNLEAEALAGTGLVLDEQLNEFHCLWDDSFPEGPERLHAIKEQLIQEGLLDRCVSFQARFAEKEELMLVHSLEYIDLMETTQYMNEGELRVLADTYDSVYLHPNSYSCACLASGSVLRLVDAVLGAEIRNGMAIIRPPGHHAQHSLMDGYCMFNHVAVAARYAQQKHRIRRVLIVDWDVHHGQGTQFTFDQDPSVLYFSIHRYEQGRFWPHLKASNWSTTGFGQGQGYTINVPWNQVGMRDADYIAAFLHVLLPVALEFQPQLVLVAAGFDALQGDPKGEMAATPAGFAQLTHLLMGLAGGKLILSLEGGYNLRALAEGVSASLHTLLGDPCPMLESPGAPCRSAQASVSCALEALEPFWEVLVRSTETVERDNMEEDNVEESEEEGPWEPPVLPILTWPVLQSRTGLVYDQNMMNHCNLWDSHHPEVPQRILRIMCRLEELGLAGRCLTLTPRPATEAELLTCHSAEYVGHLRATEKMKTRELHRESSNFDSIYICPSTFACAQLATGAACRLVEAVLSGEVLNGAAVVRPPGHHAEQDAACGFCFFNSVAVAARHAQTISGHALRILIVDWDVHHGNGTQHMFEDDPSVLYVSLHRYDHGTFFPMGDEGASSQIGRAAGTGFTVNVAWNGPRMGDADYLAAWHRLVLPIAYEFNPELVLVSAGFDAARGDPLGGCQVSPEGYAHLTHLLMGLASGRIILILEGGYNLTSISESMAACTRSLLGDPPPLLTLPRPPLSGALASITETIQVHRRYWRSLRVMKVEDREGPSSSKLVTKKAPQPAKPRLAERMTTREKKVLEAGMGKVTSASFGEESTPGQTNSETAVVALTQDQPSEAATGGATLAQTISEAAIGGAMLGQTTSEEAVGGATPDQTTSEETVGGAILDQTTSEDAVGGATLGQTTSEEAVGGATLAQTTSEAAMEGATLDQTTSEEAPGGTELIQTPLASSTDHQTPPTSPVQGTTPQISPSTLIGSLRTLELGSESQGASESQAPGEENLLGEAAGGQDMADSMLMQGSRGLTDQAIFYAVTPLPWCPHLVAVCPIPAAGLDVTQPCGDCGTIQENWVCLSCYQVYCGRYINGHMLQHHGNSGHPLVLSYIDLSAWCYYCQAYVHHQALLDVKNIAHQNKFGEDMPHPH
Description: After enzymatic reactions, reaction was stopped by adding 5 μl of 10 μM solution of a known inhibitor. The fluorescent signal of substrate and product was measured by means of microfluidics mobility assay in a EZ Reader II equipment. The percentage of conversion of substrate into product was calculated by the equipment software based on the area of the peaks.
The percentage of conversion data were analyzed using the computer software, Graphpad Prism. In the absence of the compound, the conversion (Ct) in each data set was defined as 100% activity. In the absence of HDAC, the conversion (Cb) in each data set was defined as 0% activity. The percent activity in the presence of each compound was calculated according to the following equation: % inhibition=(Ct−C)/(Ct−Cb), where C=the percentage of conversion in the presence of the compound.
The values of % inhibition versus a series of compound concentrations were then plotted using non-linear regression analysis of Sigmoidal dose-response curve generated with the equation Y=B+(T−B)/1+10((Log EC50−X)×Hill Slope), where Y=percent inhibition, B=minimum percent inhibition, T=maximum percent inhibition, X=logarithm of compound and Hill Slope=slope factor or Hill coefficient. The IC50 value was determined by the concentration causing a half-maximal percent activity.
The buffer assay used in the inhibition hHDAC6 assay is: Hepes 50 mM, KCl 100 mM, Tween 20 0.001%, BSA 0.01%; pH=7.4.

For the molecule `FC(F)c1nnc(-c2ccc(Cn3ccc4ccccc43)cc2)o1` [Example 1, 2-(4-((1H-indol-1-yl)methyl)phenyl)-5-(difluoromethyl)-1,3,4-oxadiazole], the IC50 (usually the point on the concentration scale where inhibition reaches its midpoint) came out at 3040 nM.

Consider `FC(F)c1nnc(-c2ccc(Cn3ccc4ncccc43)cc2)o1` [Example 2, 2-(4-((1H-pyrrolo[3,2-b]pyridin-1-yl)methyl)phenyl)-5-(difluoromethyl)-1,3,4-oxadiazole], for which the IC50 is 1040 nM.

In the case of `FC(F)c1nnc(-c2ccc(Cn3ccc4cnccc43)cc2)o1` [Example 3, 2-(4-((1H-pyrrolo[3,2-c]pyridin-1-yl)methyl)phenyl)-5-(difluoromethyl)-1,3,4-oxadiazole], the IC50 was 4910 nM.

Take `FC(F)c1nnc(-c2ccc(Cn3ccc4cccnc43)cc2)o1` [Example 4, 2-(4-((1H-pyrrolo[2,3-b]pyridin-1-yl)methyl)phenyl)-5-(difluoromethyl)-1,3,4-oxadiazole]: the IC50 was 1760 nM.

In the case of `O=C(c1cn(Cc2ccc(-c3nnc(C(F)F)o3)cc2)c2ccccc12)C(F)F` [Example 5, 1-(1-(4-(5-(difluoromethyl)-1,3,4-oxadiazol-2-yl)benzyl)-1H-indol-3-yl)-2,2-difluoroethanone], the half-maximal inhibitory concentration (IC50) was 239 nM.

For the molecule `FC(F)c1nnc(-c2ccc(Cn3ncc4ccccc43)cc2)o1` [Example 6, 2-(4-((1H-indazol-1-yl)methyl)phenyl)-5-(difluoromethyl)-1,3,4-oxadiazole], the IC50 was found to be 417 nM.

For the molecule `FC(F)c1nnc(-c2ccc(Cn3cnc4ccccc43)cc2)o1` [Example 8, 2-(4-((1H-benzo[d]imidazol-1-yl)methyl)phenyl)-5-(difluoromethyl)-1,3,4-oxadiazole], the IC50 came to 387 nM.

In the case of `O=C(c1nc2cc(Cl)c(Cl)cc2n1Cc1ccc(-c2nnc(C(F)F)o2)cc1)C(F)F` [Example 9, 1-(5,6-dichloro-1-(4-(5-(difluoromethyl)-1,3,4-oxadiazol-2-yl)benzyl)-1H-benzo[d]imidazol-2-yl)-2,2-difluoroethanone], the IC50 amounted to 236 nM.

With `FC(F)c1nnc(-c2ccc(Cn3cnc4cc(Cl)c(Cl)cc43)cc2)o1` [Example 10, 2-(4-((5,6-dichloro-1H-benzo[d]imidazol-1-yl)methyl)phenyl)-5-(difluoromethyl)-1,3,4-oxadiazole], the IC50 is 60.2 nM.

For `Cc1cccc2nnn(Cc3ccc(-c4nnc(C(F)F)o4)cc3)c12` [Example 12], the 50% inhibitory concentration (IC50) amounted to 190 nM.

Regarding `FC(F)c1nnc(-c2ccc(Cn3nnc4ccc(Cl)cc43)cc2)o1` [Example 13, 2-(4-((6-chloro-1H-benzo[d][1,2,3]triazol-1-yl)methyl)phenyl)-5-(difluoromethyl)-1,3,4-oxadiazole], the IC50 stood at 129 nM.

As to `CC1(C)C(=O)N(Cc2ccc(-c3nnc(C(F)F)o3)cc2)c2ccccc21` [Example 15, 1-(4-(5-(difluoromethyl)-1,3,4-oxadiazol-2-yl)benzyl)-3,3-dimethylindolin-2-one], the IC50 stood at 214 nM.

With `O=C1c2ccccc2C(=O)N1Cc1ccc(-c2nnc(C(F)F)o2)cc1` [Example 16, 2-(4-(5-(difluoromethyl)-1,3,4-oxadiazol-2-yl)benzyl)isoindoline-1,3-dione], the half-inhibitory concentration (IC50) came to 258 nM.

For `FC(F)c1nnc(-c2ccc(Cn3nnnc3-c3ccccc3)cc2)o1` [Example 17, 2-(difluoromethyl)-5-(4-((5-phenyl-1H-tetrazol-1-yl)methyl)phenyl)-1,3,4-oxadiazole], the concentration for half-maximal inhibition (IC50) turned out to be 920 nM.

For `O=c1n(-c2ccccc2)cnn1Cc1ccc(-c2nnc(C(F)F)o2)cc1` [Example 18, 1-(4-(5-(difluoromethyl)-1,3,4-oxadiazol-2-yl)benzyl)-4-phenyl-1H-1,2,4-triazol-5(4H)-one], the IC50 came to 1160 nM.

On to `O=C1N(Cc2ccc(-c3nnc(C(F)F)o3)cc2)c2ccccc2C12CCOCC2` [Example 19], for which the IC50 amounted to 229 nM.

Turning to `CC(c1ccc(-c2nnc(C(F)F)o2)cc1)n1cnc2ccccc21` (centres unmarked) [Example 20, 2-(4-(1-(1H-benzo[d]imidazol-1-yl)ethyl)phenyl)-5-(difluoromethyl)-1,3,4-oxadiazole], the IC50 is 589 nM.

Consider `FC(F)c1nnc(-c2ccc(Cn3nnc4ccccc43)nc2)o1` [Example 21, 2-(6-((1H-benzo[d][1,2,3]triazol-1-yl)methyl)pyridin-3-yl)-5-(difluoromethyl)-1,3,4-oxadiazole], for which the half-inhibitory concentration (IC50) came out at 103 nM.

Turning to `FC(F)c1nnc(-c2ccc(Cn3nnc4cccnc43)nc2)o1` [Example 23, 2-(6-((3H-[1,2,3]triazolo[4,5-b]pyridin-3-yl)methyl)pyridin-3-yl)-5-(difluoromethyl)-1,3,4-oxadiazole], the IC50 worked out at 190 nM.

On to `FC(F)c1nnc(-c2ccc(Cn3cnc(-c4ccccc4)c3)nc2)o1` [Example 26, 2-(difluoromethyl)-5-(6-((4-phenyl-1H-imidazol-1-yl)methyl)pyridin-3-yl)-1,3,4-oxadiazole], for which the IC50 amounted to 48.3 nM.

As to `COC(=O)c1cn(Cc2ccc(-c3nnc(C(F)F)o3)cc2)nn1` [Example 28, methyl 1-(4-(5-(difluoromethyl)-1,3,4-oxadiazol-2-yl)benzyl)-1H-1,2,3-triazole-4-carboxylate], the IC50 was 2800 nM.

With `FC(F)c1nnc(-c2ccc(Cn3cc(-c4ccc(Cl)cc4)nn3)cc2)o1` [Example 29, 2-(4-((4-(4-chlorophenyl)-1H-1,2,3-triazol-1-yl)methyl)phenyl)-5-(difluoromethyl)-1,3,4-oxadiazole], the concentration for half-maximal inhibition (IC50) turned out to be 95.6 nM.

With `FC(F)c1nnc(-c2ccc(Cn3cc(-c4ccc(C(F)(F)F)cc4)nn3)cc2)o1` [Example 30, 2-(difluoromethyl)-5-(4-((4-(4-(trifluoromethyl)phenyl)-1H-1,2,3-triazol-1-yl)methyl)phenyl)-1,3,4-oxadiazole], the IC50 was 238 nM.

For the molecule `CC(C)(C)c1cn(Cc2ccc(-c3nnc(C(F)F)o3)cc2)nn1` [Example 31, 2-(4-((4-(tert-butyl)-1H-1,2,3-triazol-1-yl)methyl)phenyl)-5-(difluoromethyl)-1,3,4-oxadiazole], the IC50 came to 273 nM.

As to `FC(F)c1nnc(-c2ccc(Cn3cc(C4CCCCC4)nn3)cc2)o1` [Example 32, 2-(4-((4-cyclohexyl-1H-1,2,3-triazol-1-yl)methyl)phenyl)-5-(difluoromethyl)-1,3,4-oxadiazole], the IC50 is 475 nM.

Turning to `FC(F)c1nnc(-c2ccc(Cn3cc(-c4ccncc4)nn3)cc2)o1` [Example 33, 2-(difluoromethyl)-5-(4-((4-(pyridin-4-yl)-1H-1,2,3-triazol-1-yl)methyl)phenyl)-1,3,4-oxadiazole], the half-maximal inhibitory concentration (IC50) stood at 188 nM.

Consider `FC(F)c1nnc(-c2ccc(Cn3cc(-c4cccnc4)nn3)cc2)o1` [Example 34, 2-(difluoromethyl)-5-(4-((4-(pyridin-3-yl)-1H-1,2,3-triazol-1-yl)methyl)phenyl)-1,3,4-oxadiazole], for which the IC50 turned out to be 202 nM.

For the molecule `FC(F)c1nnc(-c2ccc(Cn3cc(-c4ccsc4)nn3)cc2)o1` [Example 35, 2-(difluoromethyl)-5-(4-((4-(thiophen-3-yl)-1H-1,2,3-triazol-1-yl)methyl)phenyl)-1,3,4-oxadiazole], the IC50 stood at 131 nM.

Consider `FC(F)c1nnc(-c2ccc(Cn3cc(-c4cccs4)nn3)cc2)o1` [Example 36, 2-(difluoromethyl)-5-(4-((4-(thiophen-2-yl)-1H-1,2,3-triazol-1-yl)methyl)phenyl)-1,3,4-oxadiazole], for which the IC50 was 105 nM.
